Target: NaV 1.8 channel (Homo sapiens, UniProt Q9Y5Y9)
Assay: Activity against NaV 1.8 channel (optical membrane potential assay)
Assay type: cell-based
Protocol: Compounds of the invention are useful as antagonists of voltage-gated sodium ion channels. Antagonist properties of test compounds were assessed as follows. Cells expressing the NaV of interest were placed into microtiter plates. After an incubation period, the cells were stained with fluorescent dyes sensitive to the transmembrane potential. The test compounds were added to the microtiter plate. The cells were stimulated with either a chemical or electrical means to evoke a NaV dependent membrane potential change from unblocked channels, which was detected and measured with trans-membrane potential-sensitive dyes. Antagonists were detected as a decreased membrane potential response to the stimulus. The optical membrane potential assay utilized voltage-sensitive FRET sensors described by Gonzalez and Tsien (See, Gonzalez, J. E. and R. Y. Tsien (1995) “Voltage sensing by fluorescence resonance energy transfer in single cells” Biophys J 69(4): 1272-80, and Gonzalez, J. E. and R. Y. Tsien (1997) “Improved indicators of cell membrane potential that use fluorescence resonance energy transfer” Chem Biol 4(4): 269-77) in combination with instrumentation for measuring fluorescence changes such as the Voltage/Ion Probe Reader (VIPR®) (See, Gonzalez, J. E., K. Oades, et al. (1999) “Cell-based assays and instrumentation for screening ion-channel targets” Drug Discov Today 4(9): 431-439).
24 hours before the assay on VIPR, CHO cells endogenously expressing a NaV1.2 type voltage-gated NaV are seeded in 96-well poly-lysine coated plates at 60,000 cells per well. Other subtypes are performed in an analogous mode in a cell line expressing the NaV of interest. • 1) On the day of the assay, medium is aspirated and cells are washed twice with 225 μL of Bath Solution #2 (BS#2). • 2) A 15 uM CC2-DMPE solution is prepared by mixing 5 mM coumarin stock solution with 10% Pluronic 127 1:1 and then dissolving the mix in the appropriate volume of BS#2. • 3) After bath solution is removed from the 96-well plates, the cells are loaded with 80 μL of the CC2-DMPE solution. Plates are incubated in the dark for 30 minutes at room temperature. • 4) While the cells are being stained with coumarin, a […] solution in BS#2 is prepared. In addition to DiSBAC2(3), this solution should contain 0.75 mM ABSCl and […] (prepared from 10 mM EtOH stock, Sigma #V-5754). • 5) After 30 minutes, CC2-DMPE is removed and the cells are washed twice with 225 μL of BS#2. As before, the residual volume should be 40 μL. • 6) Upon removing the bath, the cells are loaded with 80 μL of the DiSBAC2(3) solution, after which test compound, dissolved in DMSO, is added to achieve the desired test concentration to each well from the drug addition plate and mixed thoroughly. The volume in the well should be roughly 121 μL. The cells are then incubated for 20-30 minutes. • 7) Once the incubation is complete, the cells are ready to be assayed on VIPR® with a sodium add back protocol. 120 μL of Bath solution #1 is added to stimulate the NaV dependent depolarization. […] was used as an antagonist positive control for block of the NaV channel.
Data are analyzed and reported as normalized ratios of background-subtracted emission intensities measured in the 460 nm and 580 nm channels. Background intensities are then subtracted from each assay channel. Background intensities are obtained by measuring the emission intensities during the same time periods from identically treated assay wells in which there are no cells. The response as a function of time is then reported as the ratios obtained using the following formula: […]
The data is further reduced by calculating the initial (Ri) and final (Rf) ratios. These are the average ratio values during part or all of the pre-stimulation period, and during sample points during the stimulation period. The response to the stimulus R=Rf/Ri is then calculated. […]

Chain of NaV 1.8 channel (Q9Y5Y9 whole entry): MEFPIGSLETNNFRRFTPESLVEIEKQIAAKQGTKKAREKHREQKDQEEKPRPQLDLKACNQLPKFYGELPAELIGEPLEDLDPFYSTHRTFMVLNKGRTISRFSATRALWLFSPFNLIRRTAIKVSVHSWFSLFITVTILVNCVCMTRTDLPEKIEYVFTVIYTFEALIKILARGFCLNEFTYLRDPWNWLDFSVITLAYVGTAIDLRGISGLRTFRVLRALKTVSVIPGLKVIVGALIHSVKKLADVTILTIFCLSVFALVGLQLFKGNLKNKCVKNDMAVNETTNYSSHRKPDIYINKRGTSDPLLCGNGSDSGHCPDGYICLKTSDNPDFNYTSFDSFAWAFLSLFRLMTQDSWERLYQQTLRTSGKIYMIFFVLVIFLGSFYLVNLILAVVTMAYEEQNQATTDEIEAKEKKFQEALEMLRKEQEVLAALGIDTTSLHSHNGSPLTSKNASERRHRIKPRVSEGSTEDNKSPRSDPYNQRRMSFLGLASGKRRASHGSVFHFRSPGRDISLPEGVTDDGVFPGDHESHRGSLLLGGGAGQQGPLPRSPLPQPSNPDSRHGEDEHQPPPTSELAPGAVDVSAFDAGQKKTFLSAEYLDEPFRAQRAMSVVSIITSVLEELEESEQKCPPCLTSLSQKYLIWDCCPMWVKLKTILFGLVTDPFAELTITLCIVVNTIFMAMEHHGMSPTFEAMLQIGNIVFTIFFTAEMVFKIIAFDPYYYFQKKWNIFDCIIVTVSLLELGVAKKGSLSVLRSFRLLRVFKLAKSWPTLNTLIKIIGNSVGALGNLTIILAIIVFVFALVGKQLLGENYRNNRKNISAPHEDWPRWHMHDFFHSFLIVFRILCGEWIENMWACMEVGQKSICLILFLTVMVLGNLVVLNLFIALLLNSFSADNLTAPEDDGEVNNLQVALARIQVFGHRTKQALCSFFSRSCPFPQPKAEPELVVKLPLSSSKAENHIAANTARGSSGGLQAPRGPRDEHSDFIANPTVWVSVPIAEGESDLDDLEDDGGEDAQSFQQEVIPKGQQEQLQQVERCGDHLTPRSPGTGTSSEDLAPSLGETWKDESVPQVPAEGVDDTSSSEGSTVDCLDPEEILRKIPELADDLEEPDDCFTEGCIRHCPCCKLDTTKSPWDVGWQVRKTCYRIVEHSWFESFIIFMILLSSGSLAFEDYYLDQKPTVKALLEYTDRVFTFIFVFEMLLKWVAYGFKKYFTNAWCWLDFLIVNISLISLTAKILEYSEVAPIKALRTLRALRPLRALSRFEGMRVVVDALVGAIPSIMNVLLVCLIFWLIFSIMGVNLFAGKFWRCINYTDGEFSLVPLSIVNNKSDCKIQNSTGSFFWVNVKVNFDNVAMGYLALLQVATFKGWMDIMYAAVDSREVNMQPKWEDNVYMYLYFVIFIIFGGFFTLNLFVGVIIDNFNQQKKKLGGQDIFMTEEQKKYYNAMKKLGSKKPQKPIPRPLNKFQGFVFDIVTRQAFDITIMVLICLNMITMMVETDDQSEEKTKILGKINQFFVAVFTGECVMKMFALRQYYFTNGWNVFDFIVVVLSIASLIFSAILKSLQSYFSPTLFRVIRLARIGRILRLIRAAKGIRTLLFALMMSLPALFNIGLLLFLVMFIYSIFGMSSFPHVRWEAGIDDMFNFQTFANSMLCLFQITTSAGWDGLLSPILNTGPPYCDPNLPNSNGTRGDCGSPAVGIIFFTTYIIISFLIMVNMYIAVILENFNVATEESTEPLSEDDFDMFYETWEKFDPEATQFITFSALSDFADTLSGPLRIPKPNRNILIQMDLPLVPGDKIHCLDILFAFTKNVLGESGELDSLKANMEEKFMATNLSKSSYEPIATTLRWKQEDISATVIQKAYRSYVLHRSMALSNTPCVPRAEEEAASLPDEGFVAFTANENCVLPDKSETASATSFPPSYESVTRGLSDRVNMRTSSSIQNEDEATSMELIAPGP

IC50 [µM]	Structure (SMILES)
> 10	Cc1ccc2c(N3CC[C@H](NC(=O)O[C@H]4CCOC4)C3)nc(-c3ccccc3O)nc2c1 [Example 304, (S,S)-{1-[2-(2-Hydroxy-phenyl)-7-methyl-quinazolin-4-yl]-pyrrolidin-3-yl}-carbamic acid tetrahydro-furan-3-yl ester]
2 to 10	Cc1ccc2c(N3CCC(CNC(=O)OC(C)C)CC3)nc(-c3ccccc3O)nc2c1 [Example 279]
2 to 10	Cc1ccc2c(N3CC[C@@H](NC(=O)C4CC4)C3)nc(-c3ccccc3O)nc2c1 [Example 312, (R)-Cyclopropanecarboxylic acid {1-[2-(2-hydroxy-phenyl)-7-methyl-quinazolin-4-yl]-pyrrolidin-3-yl}-amide]
2 to 10	COCCOC(=O)NC[C@@H]1CCN(c2nc(-c3c(O)cccc3F)nc3cc(C)ccc23)C1 [Example 373, 2-Methoxyethyl ((S)-1-(2-(2-fluoro-6-hydroxyphenyl)-7-methylquinazolin-4-yl)pyrrolidin-3-yl)methylcarbamate]
> 10	Cc1ccc2c(N3CCC[C@H](CNC(=O)O[C@@H]4CCOC4)C3)nc(-c3ccccc3O)nc2c1 [Example 216, (R)-Tetrahydrofuran-3-yl ((R)-1-(2-(2-hydroxyphenyl)-7-methylquinazolin-4-yl)piperidin-3-yl)methylcarbamate]
> 10	CC(C)COC(=O)NC[C@@H]1CCN(c2nc(-c3ccccc3O)nc3ccc(F)cc23)C1 [Example 376, Isobutyl ((S)-1-(6-fluoro-2-(2-hydroxyphenyl)quinazolin-4-yl)pyrrolidin-3-yl)methylcarbamate]
2 to 10	O=C(N[C@@H]1CCN(c2nc(-c3ccccc3O)nc3ccc(F)cc23)C1)C1CC1 [Example 329, N—((R)-1-(6-Fluoro-2-(2-hydroxyphenyl)quinazolin-4-yl)pyrrolidin-3-yl)cyclopropanecarboxamide]
2 to 10	Cc1ccc2c(N3CCC(NC(=O)OCC4CCCO4)CC3)nc(-c3ccccc3O)nc2c1 (centres unmarked) [Example 274]
2 to 10	Cc1ccc2c(N3CCN(C(=O)C(O)CC(C)C)CC3)nc(-c3ccccc3O)nc2c1 (centres unmarked) [Example 270]
> 10	Cc1ccc2c(N3CC[C@@H](NC(=O)c4cccc(OC(F)(F)F)c4)C3)nc(-c3ccccc3O)nc2c1 [Example 325, N—((R)-1-(2-(2-Hydroxyphenyl)-7-methylquinazolin-4-yl)pyrrolidin-3-yl)-3-(trifluoromethoxy)benzamide]
2 to 10	CCC(O)(CC)C(=O)N1CCN(c2nc(-c3ccccc3O)nc3cc(C)ccc23)CC1 [Example 122, 2-Ethyl-2-hydroxy-1-(4-(2-(2-hydroxyphenyl)-7-methylquinazolin-4-yl)piperazin-1-yl)butan-1-one]
> 10	O=C(N[C@@H]1CCN(c2nc(-c3ccccc3O)nc3ccc(F)cc23)C1)C(O)c1ccc(F)cc1 (stereo partly drawn) [Example 358, N—((R)-1-(6-Fluoro-2-(2-hydroxyphenyl)quinazolin-4-yl)pyrrolidin-3-yl)-2-(4-fluorophenyl)-2-hydroxyacetamide]
> 10	CCC(C)(O)C(=O)N1CCN(c2nc(-c3ccccc3O)nc3ccccc23)CC1 (centres unmarked) [Example 129, 2-Hydroxy-1-(4-(2-(2-hydroxyphenyl)quinazolin-4-yl)piperazin-1-yl)-2-methylbutan-1-one]
> 10	Cc1ccc2c(N3CC[C@@H](NC(=O)C4CCOCC4)C3)nc(-c3ccccc3O)nc2c1 [Example 316, Tetrahydro-N—((R)-1-(2-(2-hydroxyphenyl)-7-methylquinazolin-4-yl)pyrrolidin-3-yl)-2H-pyran-4-carboxamide]
2 to 10	Cc1ccc2c(N3CC[C@@H](NC(=O)OCc4cccnc4)C3)nc(-c3ccccc3O)nc2c1 [Example 319, (Pyridin-3-yl)methyl (R)-1-(2-(2-hydroxyphenyl)-7-methylquinazolin-4-yl)pyrrolidin-3-ylcarbamate]
> 10	O=C(NC[C@@H]1CCN(c2nc(-c3ccccc3O)nc3ccc(F)cc23)C1)O[C@@H]1CCOC1 [Example 355, (R)-Tetrahydrofuran-3-yl ((S)-1-(6-fluoro-2-(2-hydroxyphenyl)quinazolin-4-yl)pyrrolidin-3-yl)methylcarbamate]
2 to 10	CCC(C)(O)C(=O)N1CCN(c2nc(-c3ccccc3O)nc3cc(C)ccc23)CC1 (centres unmarked) [Example 165, 2-Hydroxy-1-(4-(2-(2-hydroxyphenyl)-7-methylquinazolin-4-yl)piperazin-1-yl)-2-methylbutan-1-one]
2 to 10	Cc1ccc2c(N3CC[C@@H](CNC(=O)OCc4ccccc4)C3)nc(-c3ccccc3O)nc2c1 [Example 363, Benzyl ((S)-1-(2-(2-hydroxyphenyl)-7-methylquinazolin-4-yl)pyrrolidin-3-yl)methylcarbamate]
> 10	Cc1ccc2c(N3CCN(C(=O)[C@H](O)CC(C)C)CC3)nc(-c3c(C)cccc3O)nc2c1 [Example 150, (R)-2-Hydroxy-1-(4-(2-(2-hydroxy-6-methylphenyl)-7-methylquinazolin-4-yl)piperazin-1-yl)-4-methylpentan-1-one]
> 10	Cc1ccc2c(N3CC[C@@H](NC(=O)c4cccnc4)C3)nc(-c3ccccc3O)nc2c1 [Example 328, N—((R)-1-(2-(2-Hydroxyphenyl)-7-methylquinazolin-4-yl)pyrrolidin-3-yl)nicotinamide]
> 10	CC(O)(C(=O)N1CCN(c2nc(-c3ccccc3O)nc3ccccc23)CC1)C(F)(F)F (centres unmarked) [Example 178, 2-(Trifluoromethyl)-2-hydroxy-1-(4-(2-(2-hydroxyphenyl)quinazolin-4-yl)piperazin-1-yl)propan-1-one]
2 to 10	Cc1ccc2c(N3CC[C@@H](CNC(=O)OC(C)C)C3)nc(-c3ccccc3O)nc2c1 [Example 368, Isopropyl ((S)-1-(2-(2-hydroxyphenyl)-7-methylquinazolin-4-yl)pyrrolidin-3-yl)methylcarbamate]
> 10	Cc1ccc2c(N3CCC(NC(=O)C(C)(O)C(F)(F)F)CC3)nc(-c3ccccc3O)nc2c1 (centres unmarked) [Example 246, 2-(Trifluoromethyl)-2-hydroxy-N-(1-(2-(2-hydroxyphenyl)-7-methylquinazolin-4-yl)piperidin-4-yl)propanamide]
2 to 10	CC[C@@H](O)C(=O)N1CCN(c2nc(-c3ccccc3O)nc3ccccc23)CC1 [Example 118, (R)-2-Hydroxy-1-(4-(2-(2-hydroxyphenyl)quinazolin-4-yl)piperazin-1-yl)butan-1-one]
> 10	Cc1ccc2c(N3CCC[C@H](NC(=O)O[C@@H]4CCOC4)C3)nc(-c3ccccc3O)nc2c1 [Example 203, (R)-Tetrahydrofuran-3-yl (S)-1-(2-(2-hydroxyphenyl)-7-methylquinazolin-4-yl)piperidin-3-ylcarbamate]
2 to 10	CCOC(=O)NC[C@@H]1CCCN(c2nc(-c3ccccc3O)nc3cc(C)ccc23)C1 [Example 254, Ethyl((S)-1-(2-(2-hydroxyphenyl)-7-methylquinazolin-4-yl)piperidin-3-yl)methylcarbamate]
< 2	COCCOC(=O)NC1CCN(c2nc(-c3ccccc3O)nc3ccc(F)cc23)CC1 [Example 258, 2-Methoxyethyl 1-(6-fluoro-2-(2-hydroxyphenyl)quinazolin-4-yl)piperidin-4-ylcarbamate]
2 to 10	Cc1ccc2c(N3CC[C@@H](NC(=O)OCc4ccncc4)C3)nc(-c3ccccc3O)nc2c1 [Example 320, (Pyridin-4-yl)methyl (R)-1-(2-(2-hydroxyphenyl)-7-methylquinazolin-4-yl)pyrrolidin-3-ylcarbamate]

Structure (SMILES)	IC50 [µM]
Cc1ccc2c(N3CCN(C(=O)Oc4ccccc4)CC3CO)nc(-c3ccccc3O)nc2c1 (centres unmarked) [Example 126, 3-Hydroxymethyl-4-[2-(2-hydroxy-phenyl)-7-methyl-quinazolin-4-yl]-piperazine-1-carboxylic acid phenyl ester]	> 10

Reference: US7928107B2, “Quinazolines useful as modulators of ion channels” (Vertex Pharmaceuticals Incorporated, priority 2004, dated 2011)
